Results taken from patent US6989377B2, “Treating vitamin D responsive diseases” (priority 1999, dated 2006).
Marks after values point to notes of the source that are not given here. One block for each compound: values may come before it.

How the values were obtained:
Format in all cases: in vivo, mouse
[1] = system: DS-induced colitis in C3H/HeJ male mice; assay: Calcitriol prevention of DS-induced colitis; settings: 50 ng/day in diet from day −7; 1% DS days 0 to 5; terminated day 27
[2] = system: DSS-induced colitis in 129X1/SvJ male mice; assay: Treatment at the first signs of DSS-induced colitis in 129X1/SvJ mice; settings: 50 ng/d from day 4 of 1% DSS
Excerpt: The 129×1/SvJ strain is genetically similar to the 129/Ola strain and to the 129/SvPas strain, which is less susceptible to DSS-induced colitis than C3H/HeJ.

[3] = system: DS-induced colitis in C3H/HeJ male mice; assay: Calcitriol prevention of DS-induced colitis
Protocol: Fecal hemoglobin was analyzed in the mice to determine bleeding from a breached intestinal barrier. […] Co., Needham Heights, Mass.), the supernatants were decanted into fresh tubes and stored frozen at -20° C. Hemoglobin in the supernatants was analyzed by a method adapted from Saitoh et al., Digestion, 56:67-75, 1995, and Liem et al., Anal. Biochem., 98:388-393, 1979, with rat hemoglobin as standard (Sigma-Aldrich). The supernatants were diluted 1:25 in TBS. […] The reaction was stopped with 100 μL of 2 M phosphoric acid, and the absorbance at 450 nm was measured with an MRX Revelation Microplate Reader (DYNEX Technologies). […] The mice were euthanized with an i.p. injection of pentobarbital. […] The fixed tissue was embedded in paraffin, sectioned at 6 μm, stained with hematoxylin and eosin, and examined by light microscopy. Scoring was conducted by a veterinary pathologist in blinded fashion. […] Clin. Invest., 98:1010-1020, 1996. The scores were summed to provide a total colitis score for each mouse. […] In particular, age-matched C3H/HeJ male mice were fed a synthetic diet (see Example 6) with or without calcitriol or prednisolone for one week. […] The mice were weighed every 3-4 days thereafter. […] Serum and colon tissue were collected on day 28. Most assays were performed as described in Example 6, and the terminal serum calcium assay was performed as described below. […] The serum was decanted and stored frozen at -20° C. The samples, standards, and buffer blanks (2 μL each) were aliquoted into duplicate wells of a 96-well plate. Calcium reagent working solution (0.25 mL), prepared according to the manufacturer's directions (Sigma Diagnostics, St. Louis, Mo.), was added to each well, and the absorbance at 570 nm was measured.

[4] = system: male C3H/HeJ mice; assay: DS-induced colitis model in mice (weight, mortality, fecal hemoglobin, colon histopathology); settings: for Colon Histopathology (sum): total colitis score 0 to 16
Excerpt: This Example describes the generation of a mouse model for dextran sulfate (DS) induced colitis. This DS-induced colitis model was adapted from Okayasu et al. (1990) for use with a synthetic diet. In this Example, male C3H/HeJ mice were used, as these mice are highly susceptible to DS-induced colitis. Initially, mice were given 3.5% DS w/v in acidified water for 5 days, followed by acidified water without DS, and continuously fed a synthetic diet (synthetic diet described in Smith and Hayes, PNAS, USA, 84:5878-5882, 1987). […] These mice shunned the water containing DS, and met their hydration needs by consuming the synthetic diet (which is approximately 60% water by weight). A second group of mice were given 3.5% DS w/v in acidified water for 5 days, followed by acidified water without DS, and continuously fed laboratory chow (Purina mouse chow #5008) as described in Mahler et al., Gastrointest, Liver Physiol., 37:G544-G551 (1996). These mice, consuming an average of 0.57 g DS/mouse, lost weight (controls 26.1±0.7 g; DS group 22.8±0.3 g), and had hemoglobin (Hg) in the stool (controls 0±0 mg Hg/g stool; DS group 11.4 mg Hg/g stool).
To adapt the DS-induced model for use with the synthetic diet (see Smith and Hayes, 1987), a third group of mice were given graded amounts of DS in acidified water and a synthetic diet for 5 days, followed by acidified water and the synthetic diet without DS. These mice were weighed twice weekly and subjected to various other assays, including: fecal hemoglobin analysis, and histopathologic analysis. The results are presented below in Tables 2 and 3.
Fecal hemoglobin was analyzed in the mice to determine bleeding from a breached intestinal barrier. Fresh stool samples were collected from individual mice, dried overnight, weighed, and suspended in 0.5 mL of TRIS-buffered saline (TBS; 25 mM TRIS, 0.15 M NaCl, pH 7.6). The stool samples were centrifuged (10,000×g for 10 min) at room temperature in a Micromax centrifuge (International Equip. Co., Needham Heights, Mass.), the supernatants were decanted into fresh tubes and stored frozen at −20° C. Hemoglobin in the supernatants was analyzed by a method adapted from Saitoh et al., Digestion, 56:67-75, 1995, and Liem et al., Anal. Biochem., 98:388-393, 1979, with rat hemoglobin as standard (Sigma-Aldrich). The supernatants were diluted 1:25 in TBS. The assay was done in round-bottom, polystyrene, 96 well microtiterplates (#3555, DYNEX Technologies, Chantily, Va.). The samples, standards, and buffer blanks (20 μL each) were incubated in duplicate for 10 min with 100 μL of a substrate solution made with 9 volumes 3,3′5,5′-tetramethylbenzidine dihydrochloride peroxide solution (Turbo TMB-ELISA, Pierce Chemical Co., Rockford, Ill.) and 1 volume of hydrogen peroxide solution (Stable Peroxide Substrate Buffer, Pierce Chemical Co.). The reaction was stopped with 100 μL of 2 M phosphoric acid, and the absorbance at 450 nm was measured with an MRX Revelation Microplate Reader (DYNEX Technologies). The fecal hemoglobin assay working range was 1 to 100 μg/mL sample.
The mice were euthanized with an i.p. injection of pentobarbital. The cecal and rectal GI tract segments were collected, cut longitudinally, flushed with 10% neutral-buffered formalin, arranged in a spiral pattern in a cassette, and fixed in formalin. The fixed tissue was embedded in paraffin, sectioned at 6 μm, stained with hematoxylin and eosin, and examined by light microscopy. Scoring was conducted by a veterinary pathologist in blinded fashion. Each colon segment (proximal, medial, and distal colon, and rectum) was given a score from 0 to 4, based on the criteria described by Berg et al., J. Clin. Invest., 98:1010-1020, 1996. The scores were summed to provide a total colitis score for each mouse. The total colitis score could range from 0 (no pathology in any segment) to 16 (grade 4 lesions in all colon segments).

[5] = 1% DS in drinking water and synthetic diet, days 0 to 5
[6] = 1.5% DS in drinking water and synthetic diet, days 0 to 5
[7] = 2.0% DS in drinking water and synthetic diet, days 0 to 5
[8] = 3.0% DS in drinking water, laboratory chow

- Terminal Serum Ca ([2]; terminated 21 days later): 8.3 ± 1.3 mg/dL
- Terminal serum Ca++ ([3]; 50 ng/day in diet from day −7, 1% DS days 0 to 5, terminated day 27): 10.5 ± 1.2 mg/dL
Compound: C[C@]12C=CC(=O)C=C1CC[C@@H]1[C@@H]2[C@@H](O)C[C@@]2(C)[C@H]1CC[C@]2(O)C(=O)CO [Prednisolone, prednisolone]
- Terminal weight [1]: 29.4 ± 1.4 g
- Colon Histopathology, Distal colon [2]: 2.0 ± 0.3
- Colon Histopathology, Middle colon [2]: 0.2 ± 0.3
- Colon Histopathology, Rectum + anus [2]: 0.8 ± 1.1
- Colon histopathology, Proximal colon [2]: 0.7 ± 0.4
- Colon histopathology, Sum [2]: 3.7 ± 1.3
- Peak fecal hemoglobin ([2]; 1 cycle, terminated 21 days later): 0.4 ± 0.6 mg/g
- Terminal weight ([2]; terminated 21 days later): 26.5 ± 02.0 g
- Peak Hg in Stool ([3]; 50 ng/day in diet from day −7, 1% DS days 0 to 5): 12.3 ± 10.0 mg/g
- Colon Histopathology, Distal colon ([3]; 50 ng/day, 1% DS, score 0 to 4): 1.1 ± 0.4
- Colon histopathology, Medial colon ([3]; 50 ng/day, 1% DS, score 0 to 4): 0.3 ± 0.5
- Colon histopathology, Proximal colon ([3]; 50 ng/day, 1% DS, score 0 to 4): 1.0 ± 0
- Colon histopathology, Rectum ([3]; 50 ng/day, 1% DS, score 0 to 4): 2.9 ± 1.1
- Colon histopathology, Sum ([3]; 50 ng/day, 1% DS, total score 0 to 16): 5.3 ± 1.4

Compound: dextran sulfate [DS]
- Weight change (%, day 0-11) ([4]; 1% DS in acidified drinking water and synthetic diet, days 0 to 5): 2.1 ± 0.9%
- Mortality (%) [4, 5]: 0%
- Peak Hg in Stool [4, 5]: 1.8 mg/g
- Colon Histopathology (sum) ([4]; 1% DS in drinking water and synthetic diet): 6.3 ± 3.5
- Mortality (%) [4, 6]: 66%
- Peak Hg in Stool [4, 6]: 16.7 mg/g
- Weight change (%, day 0-11) [4, 6]: −12.4 ± 0.7%
- Colon Histopathology (sum) ([4]; 1.5% DS in drinking water and synthetic diet): 6.5
- Mortality (%) [4, 7]: 100%
- Peak Hg in Stool [4, 7]: 31.7 mg/g
- Weight change (%, day 0-11) ([4]; 2.0% DS in drinking water and synthetic diet, weight change day 0 to 6, when mortality reached 100%): −17.5 ± 0.2^b %
- Mortality (%) [4, 8]: 0%
- Peak Hg in Stool [4, 8]: 11.4 mg/g
- Weight change (%, day 0-11) [4, 8]: −5.4%
- Colon Histopathology (sum) [4, 8]: 9.5 ± 0.9
- Hemoglobin (Hg) in the stool ([4]; 3.5% DS w/v in acidified water for 5 days, laboratory chow): 11.4 mg Hg/g stool
- Body weight ([4]; 3.5% DS w/v in acidified water for 5 days, laboratory chow, controls 26.1±0.7 g): 22.8 ± 0.3 g
- Signs of colitis (diarrhea, blood in the stool, weight loss) ([4]; 3.5% DS w/v in acidified water for 5 days, synthetic diet (mice shunned the DS water)): no signs of colitis
